Test results: paper PMC9246869, “Allosteric inhibition of PPM1D serine/threonine phosphatase via an altered conformational state” (Nature Communications, 2022)
Values joined by “and” are separate entries in the source; they are usually repeats but may differ in a detail not shown here. Equal values may be shown once. Read-outs that look alike come from different tables or passages of the source.

Experiments:
PPM1D1–420 [1] = biological target: T1, PPM1D1–420 (Homo sapiens, UniProt O15297); assay: Surface plasmon resonance (SPR); format: binding; conditions: for Kd: read-out: KD
T1 construct: PPM1D1–420 was PCR-amplified from the synthesized gene with BsaI sites; His(6)-SUMO (N, cleaved yes); made in house; host or cells: E. coli BL21 (DE3)
T1 sequence (O15297 1-420): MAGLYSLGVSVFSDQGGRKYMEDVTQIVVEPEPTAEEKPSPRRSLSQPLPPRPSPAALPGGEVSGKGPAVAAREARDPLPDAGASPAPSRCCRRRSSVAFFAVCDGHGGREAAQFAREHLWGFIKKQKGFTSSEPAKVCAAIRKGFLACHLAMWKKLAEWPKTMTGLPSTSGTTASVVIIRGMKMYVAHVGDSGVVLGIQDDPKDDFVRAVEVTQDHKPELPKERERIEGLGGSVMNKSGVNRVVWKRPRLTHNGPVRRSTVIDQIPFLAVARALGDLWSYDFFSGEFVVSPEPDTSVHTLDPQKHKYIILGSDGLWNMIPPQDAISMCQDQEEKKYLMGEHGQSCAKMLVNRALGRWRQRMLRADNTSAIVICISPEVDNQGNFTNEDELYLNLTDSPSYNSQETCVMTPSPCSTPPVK
Method: SPR was carried out on the Biacore S200 (GE Healthcare) using Series S sensor chip NTA (GE BR-1005-32). The preparation of the chip surface was conducted according to the manufacturer’s indications. The running buffer contained 50 mM Tris (pH 7.5), 50 mM NaCl, 1 mM MgCl2, 0.5 mM TCEP, 0.005% (v/v) P20 surfactant, and 2% DMSO. PPM1D1–420 and PPM1D∆Flap were run under single-cycle mode due to the slow-off-rate kinetics. The two proteins were immobilized on the chip surface in flow cells 2 and 3 with a signal of ~1500–2000 RU at a rate of 5 μL/min while flow cell 1 was left blank as a reference. The running buffer was injected three times followed by the GSK2830371 analyte in solution. Injections were carried out at a flow rate of 50 μL/min with the analyte in a concentration series of 5-point, 3-fold ending at 400 nM top dose. The association and dissociation phases were monitored for 90 s and 600 s, respectively. Collected data were evaluated using the Biacore S200 Evaluation Software under 1:1 binding mode. PPM1D∆Hinge was run under multi-cycle mode due to its fast-on/fast-off kinetics. The protein was immobilized to give a signal of ~ 3000 RU. GSK2830371 analyte in solution was injected at a flow rate of 90 μL/min in a 10-pt, 2-fold concentration series ending at 15 μM top dose. The association and dissociation phases were monitored for 45 s and 150 s, respectively. Since GSK2830371 had issues with solubility/aggregation at high concentrations that caused artifacts in sensorgrams, only steady-state analysis was performed to extract Kd.

PPM1D1–420 [2] = biological target: T1, PPM1D1–420; assay: Hydrogen–deuterium exchange mass spectrometry (HDX-MS)
Method: Hydrogen–deuterium exchange in PPM1D proteins (PPM1D1–420, PPM1D∆Flap, and PPM1D∆Hinge) was monitored by incubating 27 pmoles of protein in storage buffer (50 mM Tris HCl pH 7.4, 500 mM NaCl, 10% glycerol, 10 mM MgCl2, 1 mM TCEP, H2O) with a 10-fold molar excess of GSK2830371 (270 pmoles) in DMSO, or 3.85% DMSO as a control. Due to the low solubility of the compound, the exact molar excess was unknown. […] The slow off-rate of the compound likely plays a role in this. The PPM1D:GSK/DMSO mix equilibrated for 15 min at room temperature, followed by the addition of a 15-fold excess of labeling buffer (20 mM HEPES, pD 7.5, 25 mM NaCl, 5 mM MgCl2, 0.1 mM TCEP, D2O) at 25 °C. Analysis of C-terminal truncations of PPM1D were performed without the DMSO and preincubation step. […]
All samples were digested immediately after quench by injecting directly into an M-class nanoAcquity UPLC with HDX technology (Waters) for online digestion with an Enzymate BEH pepsin column [2.1 × 30 mm, 5 μm (Waters)] and UPLC peptide separation. […] Back-exchange was calculated based on deuterium uptake observed in peptides within PPM1D that are solvent accessible, lack structure, and display these characteristics in their uptake profile (high deuterium incorporation that remains a flat line over 4 h time course). […]

Cc1ncc(Cl)cc1NCc1ccc(C(=O)N[C@@H](CC2CCCC2)C(=O)NC2CC2)s1 [GSK2830371] was tested, and the koff (PPM1D1–420 [1]; Fig 3D, Average of 3 trials) was 0.00024 s⁻¹, the kon (PPM1D1–420 [1]; Fig 3D, Average of 3 trials) was 433000 M⁻¹ s⁻¹ and the Kd (PPM1D1–420 [1]; Fig 3D, Average of 3 trials) was 1.2 nM. The koff (PPM1D1–420 [1]; Fig 3D, individual trials) was 0.00011 s⁻¹ and 0.00028 s⁻¹ and 0.00033 s⁻¹, the kon (PPM1D1–420 [1]; Fig 3D, individual trials) was 595000 M⁻¹ s⁻¹ and 343000 M⁻¹ s⁻¹ and 362000 M⁻¹ s⁻¹ and the Kd (PPM1D1–420 [1]; Fig 3D, individual trials) was 0.8 nM and 1 nM. For the same molecule, the kon (PPM1D1–420 [1]; read-out: kon (SPR), PPM1D1–420, Fig. 3D) was 430000 ± 100000 M⁻¹ s⁻¹ and the “protein in the exposed population (bimodal distribution, residues 270-278) in presence of compound” value (PPM1D1–420 [2]) was over 95%.
